Key:
[1] = tested on: mouse endothelial cell line, MAE; format: cell-based; conditions: 240 min
[2] = tested on: pig kidney endothelial cell line, PK-15; format: cell-based; conditions: 240 min
Protocol: Sera were incubated with serial dilutions of αGal oligosaccharides at 37° C. for 1 hour, then added to αGal-expressing monolayers (pig kidney cells, PK-15) in Terasaki plates for 1 hour at 37° C. Cytotoxicity was mediated by either endogenous complement, or the sera were de-complemented (heat inactivated for 30 minutes at 56° C.) and exogenous (rabbit) complement was added. After washing away excess serum, the viable dye mix "live-dead" (calcein AM/ethidium homodimer (Molecular Probes Inc., Eugene Oreg.)) was added and monolayers were scored for viability by fluorescence microscopy.
The two xenotransplant baboons were outfitted with an indwelling catheter to the femoral vein to infuse compound and a catheter to the femoral artery for blood sampling. Following the transplant procedure, but just prior to providing circulatory access to the xenograft, the oligosaccharide was administered by i.v. pump through the catheter in a 15 min loading dose, followed by continuous 4 hour infusion to achieve 2.5 mM blood concentration (as determined by calculations presented in Table 2). […] Blood specimens collected for plasma were immediately centrifuged and the plasma withdrawn and stored frozen at -20° C. […] Arterial pressure was monitored in the recipient baboon by intermittent automatic cuff recordings.

[3] = tested on: mouse endothelial cell line MAE; test: Cytotoxicity of baboon serum against MAE cells with exogenously added αGal pentasaccharide; format: cell-based
Protocol: FIG. 4 Cytotoxicity of serum from a baboon receiving αGal pentasaccharide (αGal-LNnT) intravenously. Shaded circles represent cytotoxicity of serum as recovered from baboon against mouse endothelial cell line MAE. Other lines indicate varying concentrations of exogenously added αGal-pentasaccharide into cytotoxicity assay. Added concentrations of the αGal pentasaccharide are depicted as follows: 2.0 mM, open circle; 1.0 mM, ×; 0.5 mM, diamond; and 0.25 mM, open square. […] Sera were incubated with serial dilutions of αGal oligosaccharides at 37° C. for 1 hour, then added to αGal-expressing monolayers (pig kidney cells, PK-15) in Terasaki plates for 1 hour at 37° C. Cytotoxicity was mediated by either endogenous complement, or the sera were de-complemented (heat inactivated for 30 minutes at 56° C.) and exogenous (rabbit) complement was added. After washing away excess serum, the viable dye mix "live-dead" (calcein AM/ethidium homodimer (Molecular Probes Inc., Eugene Oreg.)) was added and monolayers were scored for viability by fluorescence microscopy. Three Baboons were outfitted with indwelling venous and arterial catheters to the femoral vessels, and held in place with the aid of a jacket. Oligosaccharides were administered through the catheter in a 15 minute continuous infusion.

anti-αGal antibody [4] = test: ELISA of reactive anti-αGal antibody in sera of xenotransplanted baboons; format: binding, baboon; conditions: period during which serum concentration exceeded 1 mM; data not shown
Protocol: The two xenotransplant baboons were outfitted with an indwelling catheter to the femoral vein to infuse compound and a catheter to the femoral artery for blood sampling. Following the transplant procedure, but just prior to providing circulatory access to the xenograft, the oligosaccharide was administered by i.v. pump through the catheter in a 15 min loading dose, followed by continuous 4 hour infusion to achieve 2.5 mM blood concentration (as determined by calculations presented in Table 2). […] Blood specimens collected for plasma were immediately centrifuged and the plasma withdrawn and stored frozen at -20° C. Blood specimens collected for serum were clotted at 4° C. overnight and the withdrawn serum frozen at -20° C. The αGal pentasaccharide was prepared according to the enzymatic methods set forth in example 6.2 and stored as a dry, white, solid powder. The oligosaccharide was dissolved in 250 mL sterile infusion grade saline to a concentration of 0.154 g/mL, or 177 mM. Induction anesthesia was with ketamine hydrochloride 5 mg/kg/body weight in and 0.5 mg/kg of xylazine iv. Intravenous fluid of approximately 20 ml/kg body weight was given during the course of the operative procedure through either a peripheral or central vein. Atropine 0.5 mg/kg was given iv. […] Arterial pressure was monitored in the recipient baboon by intermittent automatic cuff recordings. […]

[5] = tested on: anti-αGal IgG and IgM antibodies; test: In vitro mouse laminin ELISA: soluble oligosaccharides as neutralizers of anti-αGal antibodies; format: binding; conditions: serum pre-incubated with oligosaccharide 1 hour 37° C.; result in words
Text: In vitro laminin ELISA evaluation of αGal oligosaccharides as neutralizers of anti-αGal antibodies. Mouse laminin is a basement membrane glycoprotein that expresses 50-70 oligosaccharides terminating in Galα1-3Gal, i.e., the αGal motif (Arumugham et al., 1986, Biochem. Biophys. Aeta 883:112). In this assay, immobilization of mouse laminin on microtiter plates serves as a capture ligand for anti-αGal antibodies. […] The example provides a method by which to determine the ability of αGal oligosaccharides and pharmaceutically acceptable derivative of the invention to bind to anti-αGal antibodies and to thereby remove these antibodies from the serum, neutralize anti-αGal antibodies, and/or target anti-αGal directed complement-mediated lytic attack to specific tissue or cell types. The example also provides a method by which the effectiveness of the methods of the invention can be evaluated and dosages determined.
Sera were mixed with serial dilutions of αGal oligosaccharides (αGal-CHO) at 37° C. for 1 hour, then added to mouse laminin-coated microtiter plates and incubated for 1 hour to allow binding. The microtiter plates were coated with 20 μg/mL mouse laminin in 50 mM NaHCO3 buffer, pH 9.5 at 4° C. overnight, blocked with SuperBlock solution (Pierce) for 2 hours, and then washed 3 times with SuperBlock solution. After washing excess serum away, bound IgG and IgM was measured by adding goat anti-human IgG (or IgM) conjugated to alkaline phosphatase and incubating for 1 hour, washing, and adding substrate (pNPP).

anti-αGal antibody [6] = test: In vivo blood serum analysis: serum anti-αGal antibody neutralizing capacity in baboons; set-up: species or system baboon; conditions: monovalent oligosaccharide
Text: Pharmokinetics of αGal trisaccharides and αGal pentasaccharides in baboons. This example presents a study of the pharmokinetic profile and serum anti-αGal antibody neutralizing capacity in baboons of αGal trisaccharides and αGal pentasaccharides and previews the compounds' suitability for use in the prevention of hyperacute rejection of porcine organs xenotransplanted into baboons.
Three Baboons were outfitted with indwelling venous and arterial catheters to the femoral vessels, and held in place with the aid of a jacket. Oligosaccharides were administered through the catheter in a 15 minute continuous infusion.

CC(=O)N[C@H]1[C@H](O[C@H]2[C@@H](O)[C@@H](CO)O[C@@H](O[C@H]3[C@H](O)[C@@H](O)C(O)O[C@@H]3CO)[C@@H]2O)O[C@H](CO)[C@@H](O[C@@H]2O[C@H](CO)[C@H](O)[C@H](O[C@H]3O[C@H](CO)[C@H](O)[C@H](O)[C@H]3O)[C@H]2O)[C@@H]1O (stereo partly shown) [αGal pentasaccharide, Galα1-3Galβ1-4GlcNAcβ1-3Galβ1-4Glc]
Reduction of cytotoxicity of baboon sera against MAE cells [1]: 100% | Reduction of cytotoxicity of baboon sera against PK-15 [2]: 85-95% | Inhibition of MAE cell cytotoxicity, in words ([3]; baboon serum (FIG. 4), similar results with pig PK15 cells): fully inhibits MAE cell cytotoxicity | Concentration of αGal pentasaccharide that inhibits serum cytotoxicity of MAE cells ([3]; baboon serum, exogenously added oligosaccharide (FIG. 4)): greater than 1 mM | Reactive anti-αGal antibody titer by ELISA (mouse laminin, α-Gal-albumin neoglycoconjugates, PK-15 cells) (anti-αGal antibody [4]): pronounced reduction in the anti-αGal antibody titer | Inhibition of anti-αGal IgG and IgM antibody binding to immobilized mouse laminin [5]: slightly better inhibitor of both IgG and IgM binding to laminin than αGal disaccharide | Minimal serum (circulating) concentration required to inhibit hyperacute rejection / be efficacious in vivo (anti-αGal antibody [6]): ≥ 1 mM
